# Bridge positions count the residues as written; N and C are the ends. Side chains are listed from the residue outwards. Peptide text beside a SMILES is read from it. * marks the point of attachment. Butanoyl(4-(4-I-phenyl)) = O=C(CCCc1ccc(I)cc1)*; PEG2 = NCCOCCOCCC(=O)O
# Assays:
# integrin αvβ5 = integrin αvβ5 (Homo sapiens, UniProt P06756+P18084); assay: ELISA competition assay, integrin αvβ5; type: binding
# [1] = Plasma protein binding, rapid equilibrium dialysis, mouse plasma; type: in vitro ADME
# INSR = INSR (Homo sapiens, UniProt P06213); assay: Safetyscan47 Kinases Binding, Inhibitor
# HTR1B = HTR1B (Homo sapiens, UniProt P28222); assay: Safetyscan47 GPCR cAMP, Agonist; type: cell-based
# OPRD1 [2] = biological target: T1, OPRD1 (Homo sapiens, UniProt P41143); assay: Safetyscan47 GPCR cAMP, Antagonist; type: cell-based
# OPRD1 [3] = biological target: T1, OPRD1; assay: Safetyscan47 GPCR cAMP, Agonist; type: cell-based
# EDNRA = biological target: T2, EDNRA (Homo sapiens, UniProt P25101); assay: Safetyscan47 GPCR Calcium Flux, Antagonist; type: cell-based
# T2 sequence (P25101 21-427): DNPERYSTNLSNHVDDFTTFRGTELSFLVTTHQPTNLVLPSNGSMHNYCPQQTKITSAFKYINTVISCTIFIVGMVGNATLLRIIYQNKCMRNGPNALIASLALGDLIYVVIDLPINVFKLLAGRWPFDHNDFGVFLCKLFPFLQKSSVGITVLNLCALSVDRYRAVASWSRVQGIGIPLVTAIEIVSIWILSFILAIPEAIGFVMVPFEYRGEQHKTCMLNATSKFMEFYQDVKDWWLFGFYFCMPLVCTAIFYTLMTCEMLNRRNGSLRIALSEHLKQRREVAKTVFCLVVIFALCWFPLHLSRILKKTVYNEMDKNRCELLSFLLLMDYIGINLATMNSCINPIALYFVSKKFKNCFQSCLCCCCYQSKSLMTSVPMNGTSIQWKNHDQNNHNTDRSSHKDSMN
# CHRM1 [4] = biological target: T3, CHRM1 (Homo sapiens, UniProt P11229); assay: Safetyscan47 GPCR Calcium Flux, Agonist; type: cell-based
# T3 sequence (P11229 1-460): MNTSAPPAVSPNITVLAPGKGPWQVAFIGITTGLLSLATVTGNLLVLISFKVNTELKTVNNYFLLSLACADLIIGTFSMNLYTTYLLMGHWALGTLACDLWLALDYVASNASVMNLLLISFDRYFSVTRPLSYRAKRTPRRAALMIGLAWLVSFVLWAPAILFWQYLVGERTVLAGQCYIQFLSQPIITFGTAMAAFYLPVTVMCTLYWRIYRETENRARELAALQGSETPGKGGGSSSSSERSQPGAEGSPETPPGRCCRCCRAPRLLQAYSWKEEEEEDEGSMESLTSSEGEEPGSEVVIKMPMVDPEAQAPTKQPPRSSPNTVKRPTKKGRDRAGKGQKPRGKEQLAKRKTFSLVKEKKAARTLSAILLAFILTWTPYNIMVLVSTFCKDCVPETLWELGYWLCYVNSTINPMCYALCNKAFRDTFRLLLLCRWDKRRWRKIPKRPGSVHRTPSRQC
# [5] = Pharmacokinetics in female Balb/c mice; type: in vivo, mouse
# CHRM1 [6] = biological target: T3, CHRM1; assay: Safetyscan47 GPCR Calcium Flux, Antagonist; type: cell-based
# [7] = Table S3B, IP 30 mg/kg, mouse, animal 2F001
# [8] = Table S3B, IP 30 mg/kg, mouse, animal 2F002
# [9] = Table S3B, IP 30 mg/kg, mouse, animal 2F003
# [10] = Table S3B, IP 30 mg/kg, mouse, animal 2F004
# [11] = Table S3B, IP 30 mg/kg, mouse, animal 2F005
# [12] = Table S3B: IP 30 mg/kg, Mean N=5
# [13] = Table S3D, IP 10 mg/kg, mouse, animal 1F001
# [14] = Table S3D, IP 10 mg/kg, mouse, animal 1F002
# [15] = Table S3D, IP 10 mg/kg, mouse, animal 1F003
# [16] = Table S3D, IP 10 mg/kg, mouse, animal 1F004
# [17] = Table S3D, IP 10 mg/kg, mouse, animal 1F005
# [18] = Table S3D, SC 10 mg/kg, mouse, animal 2F001
# [19] = Table S3D, SC 10 mg/kg, mouse, animal 2F002
# [20] = Table S3D, SC 10 mg/kg, mouse, animal 2F003
# [21] = Table S3D, SC 10 mg/kg, mouse, animal 2F004
# [22] = Table S3D, SC 10 mg/kg, mouse, animal 2F005
# [23] = female, Balb/c, mouse, plasma, ip, 10 mg/kg
# [24] = female, Balb/c, mouse, plasma, ip, 30 mg/kg
# [25] = female, Balb/c, mouse, plasma, sc, 10 mg/kg
# T1 sequence (P41143 whole entry): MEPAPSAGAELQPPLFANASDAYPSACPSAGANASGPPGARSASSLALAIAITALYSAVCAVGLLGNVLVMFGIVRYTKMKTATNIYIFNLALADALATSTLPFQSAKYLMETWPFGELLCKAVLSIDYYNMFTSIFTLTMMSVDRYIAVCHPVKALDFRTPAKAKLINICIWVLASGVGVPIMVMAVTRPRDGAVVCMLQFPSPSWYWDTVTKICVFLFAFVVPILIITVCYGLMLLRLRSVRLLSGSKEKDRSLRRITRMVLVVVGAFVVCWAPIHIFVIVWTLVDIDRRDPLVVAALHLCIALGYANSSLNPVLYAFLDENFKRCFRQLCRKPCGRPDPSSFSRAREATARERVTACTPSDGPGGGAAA
# HTR1B, sequence (P28222 whole entry): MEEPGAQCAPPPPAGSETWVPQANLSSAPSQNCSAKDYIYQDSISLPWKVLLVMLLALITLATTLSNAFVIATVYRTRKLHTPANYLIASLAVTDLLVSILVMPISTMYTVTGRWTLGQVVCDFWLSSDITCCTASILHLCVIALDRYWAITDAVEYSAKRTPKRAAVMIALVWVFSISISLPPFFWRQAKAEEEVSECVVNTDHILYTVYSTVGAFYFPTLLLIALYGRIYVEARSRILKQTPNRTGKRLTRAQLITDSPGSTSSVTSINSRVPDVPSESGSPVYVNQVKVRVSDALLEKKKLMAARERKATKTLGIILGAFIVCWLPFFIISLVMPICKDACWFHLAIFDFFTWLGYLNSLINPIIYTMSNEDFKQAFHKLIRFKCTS
# INSR, sequence (P06213 28-1382): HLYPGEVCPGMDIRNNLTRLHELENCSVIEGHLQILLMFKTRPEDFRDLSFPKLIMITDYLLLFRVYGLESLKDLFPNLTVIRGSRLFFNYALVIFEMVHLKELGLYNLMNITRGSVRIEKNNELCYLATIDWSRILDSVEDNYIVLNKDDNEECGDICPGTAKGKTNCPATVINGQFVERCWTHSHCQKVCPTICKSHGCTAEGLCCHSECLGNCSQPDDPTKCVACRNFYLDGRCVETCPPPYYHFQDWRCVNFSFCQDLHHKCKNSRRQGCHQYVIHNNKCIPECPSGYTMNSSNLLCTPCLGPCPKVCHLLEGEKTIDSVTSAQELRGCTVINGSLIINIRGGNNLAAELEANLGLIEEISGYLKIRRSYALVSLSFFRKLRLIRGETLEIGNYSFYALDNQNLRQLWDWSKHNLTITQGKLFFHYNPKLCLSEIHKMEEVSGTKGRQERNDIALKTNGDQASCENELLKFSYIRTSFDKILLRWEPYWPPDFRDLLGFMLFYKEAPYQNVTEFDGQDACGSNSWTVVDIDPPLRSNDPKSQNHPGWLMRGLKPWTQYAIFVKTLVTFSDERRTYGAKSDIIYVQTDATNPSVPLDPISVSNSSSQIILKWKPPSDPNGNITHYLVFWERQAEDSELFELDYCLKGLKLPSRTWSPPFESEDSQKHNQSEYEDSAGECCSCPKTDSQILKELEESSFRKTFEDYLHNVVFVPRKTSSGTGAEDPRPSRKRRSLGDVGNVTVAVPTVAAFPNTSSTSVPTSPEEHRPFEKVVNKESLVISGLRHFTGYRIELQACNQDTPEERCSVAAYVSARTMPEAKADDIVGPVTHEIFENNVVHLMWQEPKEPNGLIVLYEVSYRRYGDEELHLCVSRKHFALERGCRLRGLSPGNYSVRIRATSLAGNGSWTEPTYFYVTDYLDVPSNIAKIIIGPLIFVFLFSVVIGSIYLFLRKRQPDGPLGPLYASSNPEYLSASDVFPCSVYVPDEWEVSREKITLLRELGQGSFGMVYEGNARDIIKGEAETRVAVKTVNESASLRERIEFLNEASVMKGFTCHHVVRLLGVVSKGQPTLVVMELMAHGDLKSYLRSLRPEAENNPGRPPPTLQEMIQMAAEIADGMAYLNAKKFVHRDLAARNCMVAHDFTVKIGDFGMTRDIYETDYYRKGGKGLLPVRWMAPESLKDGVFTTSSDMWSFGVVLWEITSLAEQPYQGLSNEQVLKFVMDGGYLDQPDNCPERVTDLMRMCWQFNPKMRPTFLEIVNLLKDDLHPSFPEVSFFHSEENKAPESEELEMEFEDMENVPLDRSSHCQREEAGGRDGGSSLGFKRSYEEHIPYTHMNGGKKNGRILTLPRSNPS
# integrin αvβ5, sequence (P06756 31-992 limits assumed): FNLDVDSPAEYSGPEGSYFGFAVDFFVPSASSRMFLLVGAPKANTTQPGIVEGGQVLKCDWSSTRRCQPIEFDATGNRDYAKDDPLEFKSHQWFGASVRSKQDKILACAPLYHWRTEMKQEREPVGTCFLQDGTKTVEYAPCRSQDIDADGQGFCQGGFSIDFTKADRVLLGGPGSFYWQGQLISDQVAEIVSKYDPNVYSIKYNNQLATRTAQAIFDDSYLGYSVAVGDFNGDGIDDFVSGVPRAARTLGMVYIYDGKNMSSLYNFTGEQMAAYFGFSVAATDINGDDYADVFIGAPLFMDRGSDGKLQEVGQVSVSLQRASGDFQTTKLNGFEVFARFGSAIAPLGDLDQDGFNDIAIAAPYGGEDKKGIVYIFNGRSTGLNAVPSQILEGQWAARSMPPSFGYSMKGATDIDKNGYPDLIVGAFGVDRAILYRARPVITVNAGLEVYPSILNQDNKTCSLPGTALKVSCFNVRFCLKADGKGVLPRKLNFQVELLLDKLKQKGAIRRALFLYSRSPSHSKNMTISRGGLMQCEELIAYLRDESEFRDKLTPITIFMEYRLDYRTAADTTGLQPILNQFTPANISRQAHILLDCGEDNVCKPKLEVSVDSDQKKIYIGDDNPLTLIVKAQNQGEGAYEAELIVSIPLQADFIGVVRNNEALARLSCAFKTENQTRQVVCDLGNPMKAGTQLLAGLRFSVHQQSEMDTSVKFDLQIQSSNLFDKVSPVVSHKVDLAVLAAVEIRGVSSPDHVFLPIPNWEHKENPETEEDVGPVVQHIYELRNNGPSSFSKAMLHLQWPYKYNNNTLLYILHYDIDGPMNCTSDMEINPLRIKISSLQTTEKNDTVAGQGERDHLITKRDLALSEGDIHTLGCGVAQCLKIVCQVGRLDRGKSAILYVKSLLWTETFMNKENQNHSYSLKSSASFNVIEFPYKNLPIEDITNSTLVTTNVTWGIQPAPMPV
# integrin αvβ5, sequence (P18084 24-719 limits assumed): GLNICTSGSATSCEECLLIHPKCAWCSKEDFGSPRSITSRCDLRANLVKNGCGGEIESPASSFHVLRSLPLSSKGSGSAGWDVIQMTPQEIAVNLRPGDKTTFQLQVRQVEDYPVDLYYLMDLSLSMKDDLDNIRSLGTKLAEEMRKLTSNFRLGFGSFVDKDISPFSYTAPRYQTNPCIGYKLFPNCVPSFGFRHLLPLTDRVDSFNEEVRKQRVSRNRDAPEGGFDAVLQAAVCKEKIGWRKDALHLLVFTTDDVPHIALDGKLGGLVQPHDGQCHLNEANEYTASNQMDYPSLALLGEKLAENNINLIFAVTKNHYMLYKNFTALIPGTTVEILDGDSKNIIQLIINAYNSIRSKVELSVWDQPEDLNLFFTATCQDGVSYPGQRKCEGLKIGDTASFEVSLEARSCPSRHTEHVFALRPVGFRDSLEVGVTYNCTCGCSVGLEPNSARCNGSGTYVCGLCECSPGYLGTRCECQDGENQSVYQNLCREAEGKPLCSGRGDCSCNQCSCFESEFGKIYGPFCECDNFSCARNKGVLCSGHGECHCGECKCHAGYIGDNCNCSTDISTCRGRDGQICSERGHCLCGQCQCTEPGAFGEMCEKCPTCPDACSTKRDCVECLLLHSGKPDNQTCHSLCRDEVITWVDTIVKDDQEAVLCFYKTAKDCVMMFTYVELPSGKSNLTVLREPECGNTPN
compound,measurement,setting,value
CC[C@H](C)[C@H](NC(=O)[C@H](CC(C)C)NC(=O)[C@H](CC(=O)O)NC(=O)CNC(=O)[C@H](CCCNC(=N)N)NC(=O)[C@@H](NC(=O)[C@H](Cc1ccccc1)NC(=O)[C@H](Cc1ccc(O)cc1)NC(=O)[C@@H]1CCC(=O)NCC(=O)NCC(=O)N[C@@H](CCCNC(=N)N)C(=O)NCC(=O)N[C@@H](Cc2c[nH]cn2)C(=O)N[C@@H](C(C)C)C(=O)N2CCC[C@H]2C(=O)N1)C(C)C)C(=O)N[C@@H](CO)C(=O)N[C@@H](Cc1ccccc1)C(=O)N[C@@H](Cc1ccc(O)cc1)C(=O)N[C@@H](CCCCNC(=O)CCOCCOCCNC(=O)CCCc1ccc(I)cc1)C(=O)O [lassotide 47] (GGRGHVPEYFVRGDLISFYK([PEG2-Butanoyl(4-(4-I-phenyl))])-OH; lactam N-8),IC50,integrin αvβ5,> 10 µM
same,"Plasma protein binding, %Recovery","[1]; mouse plasma, RED, 2 μM, 4 h, 37°C",100%
same,"fraction unbound at 4 h, 2 μM","[1]; mouse, plasma, pH 7.4",0.005
same,IC50,INSR,> 45 µM
same,Emax,INSR; read-out: Max Response,11.2%
same,EC50,HTR1B,> 45 µM
same,Emax,HTR1B; read-out: Max Response,22.4%
same,IC50,"OPRD1 [2]; RC50 (IC50), GPCR cAMP, Antagonist, OPRD1",40.3 µM
same,Emax,OPRD1 [2]; read-out: Max Response,56.4%
same,EC50,OPRD1 [3],> 45 µM
same,Emax,OPRD1 [3]; read-out: Max Response,17.4%
same,IC50,EDNRA,> 45 µM
same,Emax,EDNRA; read-out: Max Response,0%
same,EC50,CHRM1 [4],> 45 µM
same,Emax,CHRM1 [4]; read-out: Max Response,1.46%
same,improvement in t1/2 vs 36,"[5]; 30 mg/kg IP, mice",9 fold
same,increase in AUC vs 36,"[5]; 30 mg/kg IP, mice",39 fold
same,Cl,"[5]; Mouse, 30 mg/kg IP, mean",0.3 mL/min/kg
same,Vz,"[5]; Mouse, 30 mg/kg IP, mean",0.1 L/kg
same,AUClast,[5]; [7],1750000
same,CL/F,[5]; [7],0.271
same,Cmax,[5]; [7],167000
same,Tmax,[5]; [7],2.0
same,Vz/F,[5]; [7],118
same,t1/2,[5]; [7],5.0
same,AUClast,[5]; [8],1710000
same,CL/F,[5]; [8],0.278
same,Cmax,[5]; [8],182000
same,Tmax,[5]; [8],2.0
same,Vz/F,[5]; [8],128
same,t1/2,[5]; [8],5.3
same,AUClast,[5]; [9],1270000
same,CL/F,[5]; [9],0.356
same,Cmax,[5]; [9],96500
same,Tmax,[5]; [9],4.0
same,Vz/F,[5]; [9],215
same,t1/2,[5]; [9],7.0
same,AUClast,[5]; [10],1810000
same,CL/F,[5]; [10],0.266
same,Cmax,[5]; [10],151000
same,Tmax,[5]; [10],2.0
same,Vz/F,[5]; [10],109
same,t1/2,[5]; [10],4.7
same,AUClast,[5]; [11],2150000
same,CL/F,[5]; [11],0.219
same,Cmax,[5]; [11],231000
same,Tmax,[5]; [11],4.0
same,Vz/F,[5]; [11],105
same,t1/2,[5]; [11],5.5
same,Vz/F,[5]; [12],135
same,t1/2,[5]; [12],5.52 h
same,AUCINF,[5]; [13],531 µg·h/mL
same,AUClast,[5]; [13],517000 ng·h/mL
same,CL/F,[5]; [13],0.314 mL/min/kg
same,Cmax,[5]; [13],74800 ng/mL
same,Tmax,[5]; [13],2.0 h
same,Vz/F,[5]; [13],122 mL/kg
same,t1/2,[5]; [13],4.5 h
same,AUCINF,[5]; [14],482 µg·h/mL
same,AUClast,[5]; [14],468000 ng·h/mL
same,CL/F,[5]; [14],0.346 mL/min/kg
same,Cmax,[5]; [14],75600 ng/mL
same,Tmax,[5]; [14],2.0 h
same,Vz/F,[5]; [14],128 mL/kg
same,t1/2,[5]; [14],4.3 h
same,AUCINF,[5]; [15],604 µg·h/mL
same,AUClast,[5]; [15],587000 ng·h/mL
same,CL/F,[5]; [15],0.276 mL/min/kg
same,Cmax,[5]; [15],57500 ng/mL
same,Tmax,[5]; [15],2.0 h
same,Vz/F,[5]; [15],108 mL/kg
same,t1/2,[5]; [15],4.5 h
same,AUCINF,[5]; [16],628 µg·h/mL
same,AUClast,[5]; [16],603000 ng·h/mL
same,CL/F,[5]; [16],0.265 mL/min/kg
same,Cmax,[5]; [16],56300 ng/mL
same,Tmax,[5]; [16],2.0 h
same,Vz/F,[5]; [16],112 mL/kg
same,t1/2,[5]; [16],4.9 h
same,AUCINF,[5]; [17],640 µg·h/mL
same,AUClast,[5]; [17],631000 ng·h/mL
same,CL/F,[5]; [17],0.260 mL/min/kg
same,Cmax,[5]; [17],68400 ng/mL
same,Tmax,[5]; [17],1.0 h
same,Vz/F,[5]; [17],91.9 mL/kg
same,t1/2,[5]; [17],4.1 h
same,AUCINF,[5]; [18],546 µg·h/mL
same,AUClast,[5]; [18],528000 ng·h/mL
same,CL/F,[5]; [18],0.305 mL/min/kg
same,Cmax,[5]; [18],45700 ng/mL
same,Tmax,[5]; [18],4.0 h
same,Vz/F,[5]; [18],115 mL/kg
same,t1/2,[5]; [18],4.3 h
same,AUCINF,[5]; [19],469 µg·h/mL
same,AUClast,[5]; [19],455000 ng·h/mL
same,CL/F,[5]; [19],0.355 mL/min/kg
same,Cmax,[5]; [19],44700 ng/mL
same,Tmax,[5]; [19],4.0 h
same,Vz/F,[5]; [19],144 mL/kg
same,t1/2,[5]; [19],4.7 h
same,AUCINF,[5]; [20],596 µg·h/mL
same,AUClast,[5]; [20],567000 ng·h/mL
same,CL/F,[5]; [20],0.280 mL/min/kg
same,Cmax,[5]; [20],56800 ng/mL
same,Tmax,[5]; [20],4.0 h
same,Vz/F,[5]; [20],123 mL/kg
same,t1/2,[5]; [20],5.1 h
same,AUCINF,[5]; [21],635 µg·h/mL
same,AUClast,[5]; [21],609000 ng·h/mL
same,CL/F,[5]; [21],0.262 mL/min/kg
same,Cmax,[5]; [21],57900 ng/mL
same,Tmax,[5]; [21],4.0 h
same,Vz/F,[5]; [21],114 mL/kg
same,t1/2,[5]; [21],5.0 h
same,AUCINF,[5]; [22],558 µg·h/mL
same,AUClast,[5]; [22],541000 ng·h/mL
same,CL/F,[5]; [22],0.299 mL/min/kg
same,Cmax,[5]; [22],50000 ng/mL
same,Tmax,[5]; [22],4.0 h
same,Vz/F,[5]; [22],120 mL/kg
same,t1/2,[5]; [22],4.7 h
same,t1/2,"[5]; Table S3D: IP 10 mg/kg, Mean N=5",4.46 h
same,AUC(0-inf),[5]; [23],577 µg·h/mL
same,AUC(0-t),[5]; [23],561 µg·h/mL
same,CL/F,[5]; [23],0.292 mL/min/kg
same,Cmax,[5]; [23],66500 ng/mL
same,Tmax,[5]; [23],1.8 h
same,Vd/F,[5]; [23],0.113 L/kg
same,half-life,[5]; [23],4.5 h
same,AUC(0-t),[5]; [24],1740 µg·h/mL
same,CL/F,[5]; [24],0.278 mL/min/kg
same,Cmax,[5]; [24],166000 ng/mL
same,Tmax,[5]; [24],2.8 h
same,AUC(0-inf),[5]; [25],561 µg·h/mL
same,AUC(0-t),[5]; [25],540 µg·h/mL
same,CL/F,[5]; [25],0.3 mL/min/kg
same,Cmax,[5]; [25],51000 ng/mL
same,Tmax,[5]; [25],4 h
same,Vd/F,[5]; [25],0.123 L/kg
same,half-life,[5]; [25],4.75 h
same,IC50,CHRM1 [6],> 45 µM
same,Emax,CHRM1 [6]; read-out: Max Response,0%
